# Assay results as given in publication PMC7031696 (Cell chemical biology, 2019).
# Where two headings read alike, the source gives them in different places.
# Columns and labels:
# [1] = system: Plasmodium falciparum 3D7-A10 parasites; assay: Stage specificity assay (8-h exposure of synchronized stages, IC50^8h); format: cell-based; details: for IC50: Plasmodium falciparum
# [2] = 1.5 h, 500 μM, pH 7.4
# [3] = system: asynchronous 3D7-A10 parasite cultures; assay: Standard 72-h exposure asexual blood stage susceptibility assay (IC50^72h); format: cell-based, Plasmodium falciparum; details: Plasmodium falciparum, 3D7, 72 h, read-out: Overall (72hr assay) Mean IC50 (IC50^72h)
# [4] = system: 3D7-MR4 trophozoite parasite-infected RBCs; details: 10 × IC50^72h; ref Allman et al., 2016; cited from earlier work
# [5] = system: 3D7-MR4 trophozoite parasite-infected RBCs; assay: Metabolomic profiling (hydrophilic metabolite changes, UHPLC-MS); format: cell-based, Plasmodium falciparum
smiles,measurement,setting,value
CCCN(CCC)CC(O)COc1ccccc1C(=O)Nc1ccccc1 (centres unmarked) [MMV006455],solubility at 1.5 h,physchem; pH 7.4,> 100 µM
same,solubility at 1.5 h,"physchem; pH 7.4, aqueous buffer, kinetic from dmso stock",≥ 500 µM
same,Ratio lowest IC50 8hr/IC50 72hr,[1]; 3D7-A10,1.0
same,killing in stage specificity assay,"[1]; 8-h exposures, survival curves",incomplete killing at all asexual blood stages
same,IC50,"[1]; 3D7, read-out: Early rings IC50 (IC50^8h), 8-h exposure 0–8 hr, bound given in μM",> 12.5 µM
same,IC50,"[1]; 3D7, read-out: Early trophozoites Mean IC50 (IC50^8h), 8-h exposure 16–24 hr, 3D7-A10, survival at 60 h",0.441 µM
same,IC50,"[1]; 3D7, read-out: Late rings IC50 (IC50^8h), 8-h exposure 8–16 hr, bound given in μM",> 12.5 µM
same,IC50,"[1]; 3D7, read-out: Late trophozoites Mean IC50 (IC50^8h), 8-h exposure 24–32 hr, 3D7-A10, survival at 60 h",0.45 µM
same,IC50,"[1]; 3D7, read-out: Schizonts Mean IC50 (IC50^8h), 8-h exposure 32–40 hr, 3D7-A10, survival at 60 h",0.933 µM
same,Stage of peak activity (Figure 6),[1]; period when the parasite was most susceptible (lowest IC50^8h),trophozoites
same,Peak Activity (Table S1),[1]; stage(s) with the lowest IC50^8h,Trophs
same,Ratio fil./std. (absorbance filtrate/standard),[2],1.00
same,IC50,[3],439 nM
same,levels of cAMP,[4],decreased
same,levels of the deoxyribonucleotides dAMP and dTMP,[4],increased
same,peptide levels (hemoglobin catabolism signature),[4],decreased peptide levels
same,Log2(fold changes) 3-phosphoglycerate,"[5]; metabolite 3-phosphoglycerate, log2 fold change",0.4787
same,Log2(fold changes) 4-Pyridoxic acid,"[5]; metabolite 4-Pyridoxic acid, log2 fold change",-0.2918
same,Log2(fold changes) 4-aminobutyrate,"[5]; metabolite 4-aminobutyrate, log2 fold change",0.4559
same,Log2(fold changes) 4-phosphopantetheine,"[5]; metabolite 4-phosphopantetheine, log2 fold change",0.0000
same,Log2(fold changes) 4-phosphopantothenate,"[5]; metabolite 4-phosphopantothenate, log2 fold change",0.3730
same,Log2(fold changes) 5-aminopentanoic acid,"[5]; metabolite 5-aminopentanoic acid, log2 fold change",0.0000
same,Log2(fold changes) 5-methyl-THF,"[5]; metabolite 5-methyl-THF, log2 fold change",0.0000
same,Log2(fold changes) 5-phosphoribosyl-1-pyrophosphate,"[5]; metabolite 5-phosphoribosyl-1-pyrophosphate, log2 fold change",-0.9177
same,Log2(fold changes) 6-phospho-D-gluconate,"[5]; metabolite 6-phospho-D-gluconate, log2 fold change",0.4580
same,Log2(fold change) HVDD,[5]; metabolite HVDD,0.0000
same,Log2(fold change) Hydroxyisocaproic acid,[5]; metabolite Hydroxyisocaproic acid,0.0000
same,Log2(fold change) IDP,[5]; metabolite IDP,0.0000
same,Log2(fold change) IMP,[5]; metabolite IMP,0.8206
same,Log2(fold change) Inositol,[5]; metabolite Inositol,0.0000
same,Log2(fold change) Isopentyl-PP,[5]; metabolite Isopentyl-PP,0.0000
same,Log2(fold change) L-arginino-succinate,[5]; metabolite L-arginino-succinate,0.0000
same,Log2(fold change) LD,[5]; metabolite LD,-0.4790
same,Log2(fold change) Myristoyl/tetradecanoyl-CoA,[5]; metabolite Myristoyl/tetradecanoyl-CoA,0.0000
same,Log2(fold change) N-Acetyl-L-alanine,[5]; metabolite N-Acetyl-L-alanine,-0.7708
same,Log2(fold change) N-acetyl-L-ornithine,[5]; metabolite N-acetyl-L-ornithine,-1.4120
same,Log2(fold change) N-acetyl-glucosamine-1/6-phosphate,[5]; metabolite N-acetyl-glucosamine-1/6-phosphate,1.1792
same,Log2(fold change) N-acetyl-glutamate,[5]; metabolite N-acetyl-glutamate,0.9055
same,Log2(fold change) N-acetyl-glutamine,[5]; metabolite N-acetyl-glutamine,-0.4062
same,Log2(fold change) N-carbamoyl-L-aspartate,[5]; metabolite N-carbamoyl-L-aspartate,-1.3580
same,Log2(fold change) NAD+,[5]; metabolite NAD+,0.6496
same,Log2(fold change) NADH,[5]; metabolite NADH,-0.2919
same,Log2(fold change) NADP+,[5]; metabolite NADP+,1.1032
same,Log2(fold change) NADPH,[5]; metabolite NADPH,1.2448
same,Log2(fold change) O-acetyl-L-serine,[5]; metabolite O-acetyl-L-serine,0.0000
same,Log2(fold change) Octoluse 8/1P,[5]; metabolite Octoluse 8/1P,-0.0556
same,Log2(fold change) Octoluse Bisphosphate,[5]; metabolite Octoluse Bisphosphate,0.1196
same,Log2(fold change) PD,[5]; metabolite PD,-1.7411
same,Log2(fold change) PE,[5]; metabolite PE,2.1593
same,Log2(fold change) PEE,[5]; metabolite PEE,-6.2592
same,Log2(fold change) PEEK,[5]; metabolite PEEK,-3.5426
same,Log2(fold change) PVNF,[5]; metabolite PVNF,-1.5028
same,Log2(fold change) Pyroglutamic acid,[5]; metabolite Pyroglutamic acid,-0.5503
same,Log2(fold change) Pyrophosphate,[5]; metabolite Pyrophosphate,-0.6263
same,Log2(fold change) Ribose-5-phosphate,[5]; metabolite Ribose-5-phosphate,0.0000
same,Log2(fold change) S-adenosyl-L-homocysteine,[5]; metabolite S-adenosyl-L-homocysteine,0.2802
same,Log2(fold change) S-adenosyl-L-methioninamine,[5]; metabolite S-adenosyl-L-methioninamine,0.0000
same,Log2(fold change) S-adenosyl-L-methionine,[5]; metabolite S-adenosyl-L-methionine,0.0000
same,Log2(fold change) S-methyl-5'-thioadenosine,[5]; metabolite S-methyl-5'-thioadenosine,1.5238
same,Log2(fold change) SD,[5]; metabolite SD,-2.2607
same,Log2(fold change) SDL,[5]; metabolite SDL,0.0000
same,Log2(fold change) SID,[5]; metabolite SID,0.0000
same,Log2(fold change) Sedoheptulose bisphosphate,[5]; metabolite Sedoheptulose bisphosphate,0.2316
same,Log2(fold change) Thiamine pyrophosphate,[5]; metabolite Thiamine pyrophosphate,0.0000
same,Log2(fold changes) UDP-D-glucose,"[5]; metabolite UDP-D-glucose, log2 fold change",0.1600
same,Log2(fold changes) UDP-D-glucuronate,"[5]; metabolite UDP-D-glucuronate, log2 fold change",-0.0808
same,Log2(fold changes) UDP-N-acetyl-glucosamine,"[5]; metabolite UDP-N-acetyl-glucosamine, log2 fold change",0.3510
same,Log2(fold changes) UDP,"[5]; metabolite UDP, log2 fold change",0.8505
same,Log2(fold changes) UMP,"[5]; metabolite UMP, log2 fold change",-0.5223
same,Log2(fold changes) UTP,"[5]; metabolite UTP, log2 fold change",-1.8892
same,Log2(fold change) hydroxyphenylpyruvate,[5]; metabolite hydroxyphenylpyruvate,0.0000
same,Log2(fold change) hydroxyproline/Aminolevulinate,[5]; metabolite hydroxyproline/Aminolevulinate,0.0000
same,Log2(fold change) hypoxanthine,[5]; metabolite hypoxanthine,0.1926
same,Log2(fold change) indole,[5]; metabolite indole,-0.2645
same,Log2(fold change) inosine,[5]; metabolite inosine,0.3717
same,Log2(fold change) isoleucine,[5]; metabolite isoleucine,0.0000
same,Log2(fold change) lactate,[5]; metabolite lactate,1.3382
same,Log2(fold change) leucine,[5]; metabolite leucine,0.0000
same,Log2(fold change) lysine,[5]; metabolite lysine,0.0000
same,Log2(fold change) malate,[5]; metabolite malate,1.2603
same,Log2(fold change) maleic acid,[5]; metabolite maleic acid,0.0000
same,Log2(fold change) methionine,[5]; metabolite methionine,0.0000
same,Log2(fold change) myo-inositol,[5]; metabolite myo-inositol,3.3468
same,Log2(fold change) nicotinamide mononucleotide,[5]; metabolite nicotinamide mononucleotide,0.0000
same,Log2(fold change) nicotinate,[5]; metabolite nicotinate,0.0981
same,Log2(fold change) ornithine,[5]; metabolite ornithine,-0.2237
same,Log2(fold change) orotate,[5]; metabolite orotate,-1.3257
same,Log2(fold change) orotidine-5'-phosphate,[5]; metabolite orotidine-5'-phosphate,0.0000
same,Log2(fold change) oxaloacetate,[5]; metabolite oxaloacetate,0.0000
same,Log2(fold change) p-aminobenzoate,[5]; metabolite p-aminobenzoate,0.0000
same,Log2(fold change) p-hydroxybenzoate,[5]; metabolite p-hydroxybenzoate,0.4381
same,Log2(fold change) pantothenate,[5]; metabolite pantothenate,0.0000
same,Log2(fold change) phenylalanine,[5]; metabolite phenylalanine,0.0000
same,Log2(fold change) phenylpyruvate,[5]; metabolite phenylpyruvate,0.1142
same,Log2(fold change) phosphoenolpyruvate,[5]; metabolite phosphoenolpyruvate,0.0121
same,Log2(fold change) prephenate,[5]; metabolite prephenate,0.0000
same,Log2(fold change) proline,[5]; metabolite proline,0.0000
same,Log2(fold change) pyridoxine,[5]; metabolite pyridoxine,0.0000
same,Log2(fold change) pyruvate,[5]; metabolite pyruvate,0.4670
same,Log2(fold change) riboflavin,[5]; metabolite riboflavin,0.0000
same,Log2(fold change) ribose,[5]; metabolite ribose,0.0000
same,Log2(fold change) ribose-phosphate,[5]; metabolite ribose-phosphate,-0.0481
same,Log2(fold change) ribulose-5-phosphate,[5]; metabolite ribulose-5-phosphate,0.0000
same,Log2(fold change) serine,[5]; metabolite serine,0.0000
same,Log2(fold change) sn-glycerol-3-phosphate,[5]; metabolite sn-glycerol-3-phosphate,-0.3619
same,Log2(fold change) succinate/Methylmalonic acid,[5]; metabolite succinate/Methylmalonic acid,-0.7549
same,Log2(fold change) succinyl-CoA/methylmalonyl-CoA,[5]; metabolite succinyl-CoA/methylmalonyl-CoA,0.0000
same,Log2(fold change) taurine,[5]; metabolite taurine,0.0000
same,Log2(fold change) thiamine,[5]; metabolite thiamine,0.0000
same,Log2(fold change) threonine/homoserine,[5]; metabolite threonine/homoserine,0.0000
same,Log2(fold change) thymidine,[5]; metabolite thymidine,-0.5446
same,Log2(fold changes) thymine,"[5]; metabolite thymine, log2 fold change",3.4235
same,Log2(fold changes) trehalose-6-Phosphate,"[5]; metabolite trehalose-6-Phosphate, log2 fold change",0.0000
same,Log2(fold changes) tryptophan,"[5]; metabolite tryptophan, log2 fold change",0.0000
same,Log2(fold changes) tyrosine,"[5]; metabolite tyrosine, log2 fold change",0.0000
same,Log2(fold changes) uridine,"[5]; metabolite uridine, log2 fold change",0.2304
